# From patent US7087616B2, “Pyrazolyl pyrimidines” (Bayer CropScience AG, priority 2001, dated 2006)
# Like-named read-outs stand apart in the source and are kept apart here.
# Key:
# [1] = test system: peach aphids (Myzus persicae); assay: Myzus Test/Cabbage; type: in vivo; conditions: 144 h, read-out: Kill rate in % after 6d
# Method: (§1) To produce a suitable preparation of active compound, 1 part by weight of active compound is mixed with the stated amounts of solvent and emulsifier, and the concentrate is diluted with emulsifier-containing water to the desired concentration.
# Cabbage leaves (Brassica oleracea) which are heavily infested by peach aphids (Myzus persicae) are treated by being dipped into the preparation of active compound of the desired concentration.
# (§2) After the desired period of time, the kill in % is determined. 100% means that all aphids have been killed; 0% means that none of the aphids have been killed.
# Amounts of solvent, amounts of emulsifier, active compounds, active compound concentrations and test results are shown in the Tables below.
# [2] = test system: cotton aphid (Aphis gossypii); assay: Aphis gossypii Test; type: in vivo; conditions: 144 h, read-out: Kill rate in % after 6d
# Method: as §1
# Cotton leaves (Gossypium hirsutum) which are heavily infested by the cotton aphid (Aphis gossypii) are treated by being dipped into the preparation of active compound of the desired concentration.
# as §2
# [3] = logP determination by HPLC (EEC Directive 79/831 Annex V.A8); type: physicochemical; conditions: pH 2.3, HPLC reversed-phase column (C 18), 43° C.
# Method: The stated logp values were determined in accordance with EEC Directive 79/831 Annex V.A8 by HPLC (High Performance Liquid Chromatography) using a reversed-phase column (C 18). Temperature: 43° C.
# Mobile phases for the determination in the acidic range: 0.1% aqueous phosphoric acid, acetonitrile; linear gradient from 10% acetonitrile to 90% acetonitrile.
# Calibration was carried out using unbranched alkane-2-ones (having 3 to 16 carbon atoms) with known logp values (determination of the logp values by the retention times using linear interpolation between two successive alkanones).
# [4] = 500 ppm, Table B 1, cabbage leaves dipped
# [5] = 500 ppm, Table B 2, cabbage leaves dipped
# [6] = reversed-phase HPLC column (C 18)
# [7] = reversed-phase HPLC column (C 18), read-out: log P(pH 2.3)
structure (smiles),measurement,setting,value
CCOC(=O)CSc1nccc(-n2cc(Br)cn2)n1,pest or weed control at 500 ppm,[1]; [4],100%
CCOC(=O)CSc1nccc(-n2cc(-c3ccc(Cl)cc3)cn2)n1,pest or weed control at 500 ppm,[1]; [5],100%
O=C(CSc1nccc(-n2cccn2)n1)OCC(F)(F)F,pest or weed control at 500 ppm,[1]; [5],100%
O=C(CSc1nccc(-n2cccn2)n1)OCC(F)(F)C(F)F,pest or weed control at 500 ppm,[1]; [5],100%
O=C(CSc1nccc(-n2cccn2)n1)OCC(F)(F)C(F)(F)C(F)(F)F,pest or weed control at 500 ppm,[1],100%
O=C(CSc1nccc(-n2cccn2)n1)OC(C(F)(F)F)C(F)(F)F,pest or weed control at 500 ppm,[1]; [5],100%
O=C(CSc1nccc(-n2cccn2)n1)OCC(Cl)Cl,pest or weed control at 500 ppm,[1]; [5],100%
O=C(CSc1nccc(-n2cccn2)n1)OCC(F)(F)C(F)(F)F,pest or weed control at 500 ppm,[1]; [5],100%
CN(CC(=O)OCC(F)(F)C(F)(F)C(F)(F)F)c1nccc(-n2cccn2)n1,pest or weed control at 500 ppm,[1],100%
COc1cnn(-c2ccnc(N(C)CC(=O)OCC(F)(F)C(F)(F)C(F)(F)F)n2)c1,pest or weed control at 500 ppm,[1],100%
COc1cnn(-c2ccnc(N(C)CC(=O)OCC(F)(F)F)n2)c1,pest or weed control at 500 ppm,[1]; [5],100%
CCOC(=O)CSc1nccc(-n2cc(OC)cn2)n1,pest or weed control at 500 ppm,"[2]; 500 ppm, cotton leaves dipped",95%
O=C(CSc1nccc(-n2cc(Cl)cn2)n1)OCC(F)(F)C(F)(F)C(F)(F)F,pest or weed control at 500 ppm,[2],99%
CCOC(=O)CSc1nccc(Br)n1 [Ethyl [(4-bromo-2-pyrimidinyl)thio]acetate],chromatographic logP,[3]; [6],2.27
"CCOC(=O)CSc1nccc(-n2cc(C)cn2)n1 [Example 1, ethyl {[4-(4-methyl-1H-pyrazol-1-yl)-2-pyrimidinyl]thio}acetate]",chromatographic logP,[3]; [6],2.28
"CCOC(=O)CSc1nccc(-n2nccc2[N+](=O)[O-])n1 [Example 2, ethyl {[4-(5-nitro-1H-pyrazol-1-yl)-2-pyrimidinyl]thio}acetate]",chromatographic logP,[3]; [6],2.55
"CCOC(=O)CN(C)c1nccc(-n2cccn2)n1 [Example 3, ethyl N-methyl-N-[4-(1H-pyrazol-1-yl)-2-pyrimidinyl]glycinate]",chromatographic logP,[3]; [6],2.1
CCOC(=O)CSc1nccc(-n2cccn2)n1 [Example 5],chromatographic logP,[3]; [7],2.19
COC(=O)CSc1nccc(-n2cc(Br)cn2)n1 [Example 7],chromatographic logP,[3]; [7],2.69
CCOC(=O)CSc1nccc(-n2ccc(-c3ccc(Cl)cc3)n2)n1 [Example 8],chromatographic logP,[3]; [7],4.5
CCOC(=O)CSc1nccc(-n2ncc(SC(F)(F)F)c2C)n1 [Example 9],chromatographic logP,[3]; [7],4.08
CCOC(=O)CSc1nccc(-n2cc([N+](=O)[O-])cn2)n1 [Example 12],chromatographic logP,[3]; [7],2.56
CCOC(=O)CSc1nccc(-n2cc(C#N)cn2)n1 [Example 13],chromatographic logP,[3]; [7],2.32
CCOC(=O)CSc1nccc(-n2ccc(C)n2)n1 [Example 14],chromatographic logP,[3]; [7],2.51
CCOC(=O)CSc1nccc(-n2nc(C(F)(F)F)cc2C(F)(F)F)n1 [Example 15],chromatographic logP,[3]; [7],4.03
CCOC(=O)CSc1nccc(-n2nc(C)c(Cl)c2C)n1 [Example 16],chromatographic logP,[3]; [7],3.83
CCOC(=O)CSc1nccc(-n2nc(C#N)c3ccccc32)n1 [Example 17],chromatographic logP,[3]; [7],3.64
CCOC(=O)CSc1nccc(-n2ncc3c2CCCC3)n1 [Example 18],chromatographic logP,[3]; [7],3.34
CCOC(=O)CSc1nccc(-n2cc(Cl)cn2)n1 [Example 19],chromatographic logP,[3]; [7],3.01
CCOC(=O)CSc1nccc(-n2cc(OC(C)C)cn2)n1 [Example 20],chromatographic logP,[3]; [7],3.15
CCOC(=O)CSc1nccc(-n2ncc3ccccc32)n1 [Example 22],chromatographic logP,[3]; [7],3.34
CCOC(=O)CSc1nccc(-n2cc3ccccc3n2)n1 [Example 23],chromatographic logP,[3]; [7],3.11
O=C(CSc1nccc(-n2cccn2)n1)OCCCl [Example 33],chromatographic logP,[3]; [7],2.3
CCOC(=O)CSc1nccc(-n2cc(Br)c(N)n2)n1 [Example 41],chromatographic logP,[3]; [7],2.18
CCOC(=O)CN(CC)c1nccc(-n2cccn2)n1 [Example 46],chromatographic logP,[3]; [7],2.53
CCOC(=O)CSc1nccc(-n2cc(C(=O)OCC)cn2)n1 [Example 47],chromatographic logP,[3]; [7],2.79
CCOC(=O)CN(C)c1nccc(-n2cc(OC(C)C)cn2)n1 [Example 51],chromatographic logP,[3]; [7],2.89
CCOC(=O)CSc1nccc(-n2cc(CC)cn2)n1 [Example 55],chromatographic logP,[3]; [7],2.99
O=C(CSc1nccc(-n2cccn2)n1)OCC(F)(F)C(F)(F)C(F)(F)C(F)F [Example 58],chromatographic logP,[3]; read-out: log P(pH 2.3),3.42
CN(CC(=O)OCC(F)(F)C(F)(F)F)c1nccc(-n2cccn2)n1 [Example 60],chromatographic logP,[3]; read-out: log P(pH 2.3),3.2
COc1cnn(-c2ccnc(N(C)CC(=O)O)n2)c1 [Example 61],chromatographic logP,[3]; [7],1.14
CN(CC(=O)O)c1nccc(-n2cc(Br)cn2)n1 [Example 62],chromatographic logP,[3]; [7],1.91
CN(CC(=O)O)c1nccc(-n2cc(Cl)cn2)n1 [Example 63],chromatographic logP,[3]; [7],1.82
CCOC(=O)CSc1nccc(-n2cc(C(F)(F)F)cn2)n1 [Example 64],chromatographic logP,[3]; [7],3.27
CCOC(=O)CN(CC(C)C)c1nccc(-n2cccn2)n1 [Example 69],chromatographic logP,[3]; [7],3.57
CN(CC(=O)OCC(F)(F)C(F)(F)C(F)(F)C(F)F)c1nccc(-n2cccn2)n1 [Example 73],chromatographic logP,[3]; read-out: log P(pH 2.3),3.46
C#Cc1cnn(-c2ccnc(SCC(=O)OCC)n2)c1 [Example 74],chromatographic logP,[3]; [7],2.71
O=C(O)CSc1nccc(-n2cc(Br)cn2)n1 [Example 76],chromatographic logP,[3]; [7],1.91
O=C(O)CSc1nccc(-n2cc(Cl)cn2)n1 [Example 82],chromatographic logP,[3]; [7],1.81
CN(CC(=O)OCC(F)(F)C(F)(F)C(F)(F)F)c1nccc(-n2cc(Cl)cn2)n1 [Example 83],chromatographic logP,[3]; read-out: log P(pH 2.3),4.46
COc1cnn(-c2ccnc(SCC(=O)O)n2)c1 [Example 84],chromatographic logP,[3]; [7],1.45
O=C(CSc1nccc(-n2cc(Br)cn2)n1)OCC(F)(F)C(F)(F)C(F)(F)F [Example 90],chromatographic logP,[3]; read-out: log P(pH 2.3),4.34
COc1cnn(-c2ccnc(SCC(=O)OCC(F)(F)C(F)(F)C(F)(F)F)n2)c1 [Example 91],chromatographic logP,[3]; read-out: log P(pH 2.3),3.78
CC(OC(=O)CSc1nccc(-n2cc(Br)cn2)n1)C(F)(F)C(F)(F)F (stereo not shown) [Example 92],chromatographic logP,[3]; [7],4.3
COc1cnn(-c2ccnc(SCC(=O)OC(C)C(F)(F)C(F)(F)C(F)(F)F)n2)c1 (stereo not shown) [Example 93],chromatographic logP,[3]; read-out: log P(pH 2.3),4.14
CC(OC(=O)CSc1nccc(-n2cc(Br)cn2)n1)C(F)(F)C(F)(F)C(F)(F)F (stereo not shown) [Example 94],chromatographic logP,[3]; read-out: log P(pH 2.3),4.73
CCOC(=O)CSc1nccc(-n2cc(C(C)=O)cn2)n1 [Example 95],chromatographic logP,[3]; [7],2.07
C=Cc1cnn(-c2ccnc(SCC(=O)OCC)n2)c1 [Example 96],chromatographic logP,[3]; [7],2.87
CCOC(=O)CSc1nccc(-n2cc(N)cn2)n1 [Example 99],chromatographic logP,[3]; [7],0.94
COc1cnn(-c2ccnc(SCC(=O)OCC(F)(F)F)n2)c1 [Example 101],chromatographic logP,[3]; [7],2.87
CCOC(=O)CSc1nccc(-n2cc(SC(F)(F)C(F)F)cn2)n1 [Example 102],chromatographic logP,[3]; [7],3.45
CCOC(=O)CSc1nccc(-n2cccn2)n1 [drawing 174],pest or weed control at 500 ppm,[1]; [4],95%
CCOC(=O)CSc1nccc(-n2cc(-c3ccccc3)cn2)n1 [drawing 177],pest or weed control at 500 ppm,[1]; [5],100%
O=C(O)CSc1nccc(-n2cc(Br)cn2)n1 [drawing 186],pest or weed control at 500 ppm,[1]; [5],100%
CCOC(=O)CSc1nccc(-n2cc(C(F)(F)F)cn2)n1 [drawing 188],pest or weed control at 500 ppm,[1]; [5],100%
CN(CC(=O)OCC(F)(F)C(F)(F)C(F)(F)F)c1nccc(-n2cc(Cl)cn2)n1 [drawing 189],pest or weed control at 500 ppm,[1],100%
COc1cnn(-c2ccnc(SCC(=O)O)n2)c1 [drawing 190],pest or weed control at 500 ppm,[1]; [5],100%
CC(OC(=O)CSc1nccc(-n2cc(Cl)cn2)n1)C(F)(F)C(F)(F)C(F)(F)F (stereo not shown) [drawing 191],pest or weed control at 500 ppm,[1],100%
COc1cnn(-c2ccnc(SCC(=O)OC(C)C(F)(F)C(F)(F)C(F)(F)F)n2)c1 (stereo not shown) [drawing 192],pest or weed control at 500 ppm,[1],100%
CC(OC(=O)CSc1nccc(-n2cc(Br)cn2)n1)C(F)(F)C(F)(F)C(F)(F)F (stereo not shown) [drawing 193],pest or weed control at 500 ppm,[1],100%
CCOC(=O)CN(C)c1nccc(-n2cccn2)n1 [drawing 198],pest or weed control at 500 ppm,"[2]; 500 ppm, cotton leaves dipped",99%
CCOC(=O)CSc1nccc(-n2cc(C(F)(F)F)cn2)n1 [drawing 201],pest or weed control at 500 ppm,"[2]; 500 ppm, cotton leaves dipped",95%
CN(CC(=O)OCC(F)(F)C(F)(F)C(F)(F)F)c1nccc(-n2cc(Cl)cn2)n1 [drawing 202],pest or weed control at 500 ppm,[2],95%
CC(OC(=O)CSc1nccc(-n2cc(Cl)cn2)n1)C(F)(F)C(F)(F)C(F)(F)F (stereo not shown) [drawing 204],pest or weed control at 500 ppm,[2],90%
COc1cnn(-c2ccnc(SCC(=O)OCC(F)(F)F)n2)c1 [drawing 205],pest or weed control at 500 ppm,"[2]; 500 ppm, cotton leaves dipped",100%
CCOC(=O)CSc1nccc(-n2cc(SC(F)(F)C(F)F)cn2)n1 [drawing 206],pest or weed control at 500 ppm,"[2]; 500 ppm, cotton leaves dipped",90%
